Measured values reported in ChEMBL document CHEMBL1275550, “In vitro activity of doripenem, a carbapenem for the treatment of challenging infections caused by gram-negative bacteria, against recent clinical isolates from the United States” (2008).
Values after ≈ are worked out from the molar mass of the structure shown.

How the values were obtained:
Pseudomonas aeruginosa [1] = experiment: Antimicrobial activity against imipenem non-susceptible Pseudomonas aeruginosa assessed as susceptible isolate by broth microdilution method; format: functional
Escherichia coli [2] = experiment: Antimicrobial activity against Non-ESBL Escherichia coli by broth microdilution method; format: functional
Enterobacter cloacae [3] = experiment: Antimicrobial activity against Enterobacter cloacae with nonderepressed AmpC beta-lactamsae by broth microdilution method; format: functional
Enterobacteriaceae [4] = experiment: Antimicrobial activity against ceftazidime-susceptible Enterobacteriaceae assessed as intermediate isolate by broth microdilution method; format: functional
Staphylococcus aureus = experiment: Antimicrobial activity against methicillin-susceptible Staphylococcus aureus by broth microdilution method; format: functional; conditions: Staphylococcus aureus
Serratia marcescens [5] = experiment: Antimicrobial activity against Serratia marcescens by broth microdilution method; format: functional
Escherichia coli [6] = experiment: Antimicrobial activity against Escherichia coli assessed as susceptible isolate by broth microdilution method; format: functional
Klebsiella pneumoniae [7] = experiment: Antimicrobial activity against Klebsiella pneumoniae assessed as susceptible isolate by broth microdilution method; format: functional
Enterobacteriaceae [8] = experiment: Antimicrobial activity against Enterobacteriaceae assessed as susceptible isolate by broth microdilution method; format: functional
Acinetobacter [9] = experiment: Antimicrobial activity against imipenem non-susceptible Acinetobacter by broth microdilution method; format: functional
Acinetobacter [10] = experiment: Antimicrobial activity against imipenem susceptible Acinetobacter by broth microdilution method; format: functional
Proteus mirabilis [11] = experiment: Antimicrobial activity against Proteus mirabilis by broth microdilution method; format: functional
Pseudomonas aeruginosa [12] = experiment: Antimicrobial activity against Pseudomonas aeruginosa by broth microdilution method; format: functional
Citrobacter [13] = experiment: Antimicrobial activity against Citrobacter by broth microdilution method; format: functional
Citrobacter [14] = experiment: Antimicrobial activity against Citrobacter assessed as susceptible isolate by broth microdilution method; format: functional
Pseudomonas aeruginosa [15] = experiment: Antimicrobial activity against Pseudomonas aeruginosa assessed as susceptible isolate by broth microdilution method; format: functional
Proteus mirabilis [16] = experiment: Antimicrobial activity against Non-ESBL Proteus mirabilis by broth microdilution method; format: functional
Enterobacteriaceae [17] = experiment: Antimicrobial activity against Ceftazidime non-susceptible Enterobacteriaceae assessed as resistant isolate by broth microdilution method; format: functional
Escherichia coli [18] = experiment: Antimicrobial activity against Non-ESBL Escherichia coli assessed as susceptible isolate by broth microdilution method; format: functional
Citrobacter [19] = experiment: Antimicrobial activity against Citrobacter with nonderepressed AmpC beta-lactamsae by broth microdilution method; format: functional
Klebsiella pneumoniae [20] = experiment: Antimicrobial activity against ESBL producing Klebsiella pneumoniae by broth microdilution method; format: functional
Pseudomonas aeruginosa [21] = experiment: Antimicrobial activity against imipenem non-susceptible Pseudomonas aeruginosa by broth microdilution method; format: functional
Serratia marcescens [22] = experiment: Antimicrobial activity against Serratia marcescens assessed as susceptible isolate by broth microdilution method; format: functional
Serratia marcescens [23] = experiment: Antimicrobial activity against Ceftazidime susceptible Serratia marcescens assessed as resistant isolate by broth microdilution method; format: functional
Enterobacter cloacae [24] = experiment: Antimicrobial activity against Enterobacter cloacae with nonderepressed AmpC beta-lactamsae assessed as susceptible isolate by broth microdilution method; format: functional
Acinetobacter [25] = experiment: Antimicrobial activity against Acinetobacter assessed as susceptible isolate by broth microdilution method; format: functional
Pseudomonas aeruginosa [26] = experiment: Antimicrobial activity against Ceftazidime susceptible Pseudomonas aeruginosa assessed as intermediate isolate by broth microdilution method; format: functional
Pseudomonas aeruginosa [27] = experiment: Antimicrobial activity against Pseudomonas aeruginosa isolated from non-ICU patient by broth microdilution method; format: functional
Proteus mirabilis [28] = experiment: Antimicrobial activity against Non-ESBL Proteus mirabilis assessed as susceptible isolate by broth microdilution method; format: functional
Pseudomonas aeruginosa [29] = experiment: Antimicrobial activity against Pseudomonas aeruginosa isolated from ICU patient by broth microdilution method; format: functional
Pseudomonas aeruginosa [30] = experiment: Antimicrobial activity against Pseudomonas aeruginosa isolated from non-ICU patient by broth microdilution method
Pseudomonas aeruginosa [31] = experiment: Antimicrobial activity against Pseudomonas aeruginosa isolated from ICU patient assessed as susceptible isolate by broth microdilution method
Pseudomonas aeruginosa [32] = experiment: Antimicrobial activity against Pseudomonas aeruginosa isolated from patient by broth microdilution method
Acinetobacter [33] = experiment: Antimicrobial activity against imipenem non-susceptible Acinetobacter assessed as resistant isolate by broth microdilution method; format: functional
Klebsiella pneumoniae [34] = experiment: Antimicrobial activity against Non-ESBL Klebsiella pneumoniae by broth microdilution method; format: functional
Pseudomonas aeruginosa [35] = experiment: Antimicrobial activity against imipenem susceptible Pseudomonas aeruginosa assessed as intermediate isolate by broth microdilution method; format: functional
Proteus mirabilis [36] = experiment: Antimicrobial activity against ESBL producing Proteus mirabilis assessed as intermediate isolate by broth microdilution method; format: functional
Klebsiella pneumoniae [37] = experiment: Antimicrobial activity against Non-ESBL Klebsiella pneumoniae assessed as susceptible isolate by broth microdilution method; format: functional
Klebsiella pneumoniae [38] = experiment: Antimicrobial activity against Non-ESBL Klebsiella pneumoniae assessed as intermediate isolate by broth microdilution method; format: functional
Pseudomonas aeruginosa [39] = experiment: Antimicrobial activity against Ceftazidime susceptible Pseudomonas aeruginosa by broth microdilution method; format: functional
Proteus mirabilis [40] = experiment: Antimicrobial activity against Proteus mirabilis assessed as susceptible isolate by broth microdilution method; format: functional
Proteus mirabilis [41] = experiment: Antimicrobial activity against ESBL producing Proteus mirabilis by broth microdilution method; format: functional
Streptococcus pneumoniae = experiment: Antimicrobial activity against penicillin-susceptible Streptococcus pneumoniae by broth microdilution method; format: functional; conditions: Streptococcus pneumoniae
Citrobacter [42] = experiment: Antimicrobial activity against Citrobacter with derepressed AmpC beta-lactamsae assessed as susceptible isolate by broth microdilution method; format: functional
Enterobacter cloacae [43] = experiment: Antimicrobial activity against Enterobacter cloacae by broth microdilution method; format: functional
Enterobacteriaceae [44] = experiment: Antimicrobial activity against ceftazidime-susceptible Enterobacteriaceae assessed as susceptible isolate by broth microdilution method; format: functional
Enterobacteriaceae [45] = experiment: Antimicrobial activity against Ceftazidime non-susceptible Enterobacteriaceae assessed as susceptible isolate by broth microdilution method; format: functional
Enterobacteriaceae [46] = experiment: Antimicrobial activity against Enterobacteriaceae by broth microdilution method; format: functional
Pseudomonas aeruginosa [47] = experiment: Antimicrobial activity against Ceftazidime susceptible Pseudomonas aeruginosa assessed as resistant isolate by broth microdilution method; format: functional
Escherichia coli [48] = experiment: Antimicrobial activity against ESBL producing Escherichia coli assessed as intermediate isolate by broth microdilution method; format: functional
Serratia marcescens [49] = experiment: Antimicrobial activity against Ceftazidime non-susceptible Serratia marcescens assessed as intermediate isolate by broth microdilution method; format: functional
Pseudomonas aeruginosa [50] = experiment: Antimicrobial activity against Pseudomonas aeruginosa isolated from non-ICU patient assessed as resistant isolate by broth microdilution method
Enterobacteriaceae [51] = experiment: Antimicrobial activity against Ceftazidime non-susceptible Enterobacteriaceae by broth microdilution method; format: functional
Escherichia coli [52] = experiment: Antimicrobial activity against Non-ESBL Escherichia coli assessed as intermediate isolate by broth microdilution method; format: functional

C[C@@H](O)[C@H]1C(=O)N2C(C(=O)O)=C(SCCNC=N)C[C@H]12 [IMIPENEM ANHYDROUS]
Activity (Pseudomonas aeruginosa [1]): 0% | MIC50 (Escherichia coli [2]): 0.25 µg/mL (≈ 0.835 µM) | MIC90 (Escherichia coli [2]): 0.5 µg/mL (≈ 1.67 µM) | MIC50 (Enterobacter cloacae [3]): 1 µg/mL (≈ 3.34 µM) | MIC90 (Enterobacter cloacae [3]): 2 µg/mL (≈ 6.68 µM) | Activity (Enterobacteriaceae [4]): 0.3% | MIC50 (Staphylococcus aureus; read-out: MIC50): 0.03 µg/mL (≈ 0.1 µM) | MIC90 (Staphylococcus aureus; read-out: MIC90): 0.03 µg/mL (≈ 0.1 µM) | MIC50 (Serratia marcescens [5]): 2 µg/mL (≈ 6.68 µM) | MIC90 (Serratia marcescens [5]): 4 µg/mL (≈ 13.4 µM) | Activity (Escherichia coli [6]): 100% | Activity (Klebsiella pneumoniae [7]): 99.7% | Activity (Enterobacteriaceae [8]): 99.4% | MIC50 (Acinetobacter [9]): > 32 µg/mL | MIC90 (Acinetobacter [9]): > 32 µg/mL | MIC50 (Acinetobacter [10]): 0.5 µg/mL (≈ 1.67 µM) | MIC90 (Acinetobacter [10]): 4 µg/mL (≈ 13.4 µM) | MIC50 (Proteus mirabilis [11]): 2 µg/mL (≈ 6.68 µM) | MIC90 (Proteus mirabilis [11]): 4 µg/mL (≈ 13.4 µM) | MIC50 (Pseudomonas aeruginosa [12]): 4 µg/mL (≈ 13.4 µM) | MIC90 (Pseudomonas aeruginosa [12]): 32 µg/mL (≈ 107 µM) | MIC50 (Citrobacter [13]): 1 µg/mL (≈ 3.34 µM) | MIC90 (Citrobacter [13]): 2 µg/mL (≈ 6.68 µM) | Activity (Citrobacter [14]): 99.8% | Activity (Pseudomonas aeruginosa [15]): 76.3% | MIC50 (Proteus mirabilis [16]): 2 µg/mL (≈ 6.68 µM) | MIC90 (Proteus mirabilis [16]): 4 µg/mL (≈ 13.4 µM) | Activity (Enterobacteriaceae [17]): 1% | Activity (Escherichia coli [18]): 100% | MIC50 (Citrobacter [19]): 0.5 µg/mL (≈ 1.67 µM) | MIC90 (Citrobacter [19]): 2 µg/mL (≈ 6.68 µM) | MIC50 (Klebsiella pneumoniae [20]): 0.5 µg/mL (≈ 1.67 µM) | MIC90 (Klebsiella pneumoniae [20]): 1 µg/mL (≈ 3.34 µM) | MIC50 (Pseudomonas aeruginosa [21]): 16 µg/mL (≈ 53.4 µM) | MIC90 (Pseudomonas aeruginosa [21]): > 32 µg/mL | Activity (Serratia marcescens [22]): 98.9% | Activity (Serratia marcescens [23]): 0.8% | Activity (Enterobacter cloacae [24]): 99.5% | Activity (Acinetobacter [25]): 82.4% | Activity (Pseudomonas aeruginosa [26]): 7.6% | MIC50 (Pseudomonas aeruginosa [27]): 4 µg/mL (≈ 13.4 µM) | MIC90 (Pseudomonas aeruginosa [27]): 32 µg/mL (≈ 107 µM) | Activity (Proteus mirabilis [28]): 97.3% | MIC50 (Pseudomonas aeruginosa [29]): 4 µg/mL (≈ 13.4 µM) | MIC90 (Pseudomonas aeruginosa [29]): 32 µg/mL (≈ 107 µM) | Activity (Pseudomonas aeruginosa [30]): 74.9% | Activity (Pseudomonas aeruginosa [31]): 67.6% | Activity (Pseudomonas aeruginosa [32]): 7.9% | Activity (Acinetobacter [33]): 96.1% | MIC50 (Klebsiella pneumoniae [34]): 0.5 µg/mL (≈ 1.67 µM) | MIC90 (Klebsiella pneumoniae [34]): 1 µg/mL (≈ 3.34 µM) | Activity (Pseudomonas aeruginosa [35]): 0% | Activity (Proteus mirabilis [36]): 0% | Activity (Klebsiella pneumoniae [37]): 99.8% | Activity (Klebsiella pneumoniae [38]): 0.1% | MIC50 (Pseudomonas aeruginosa [39]): 4 µg/mL (≈ 13.4 µM) | MIC90 (Pseudomonas aeruginosa [39]): 16 µg/mL (≈ 53.4 µM) | Activity (Proteus mirabilis [40]): 97.3% | MIC (Proteus mirabilis [41]): 0.5 µg/mL (≈ 1.67 µM) | MIC50 (Streptococcus pneumoniae): ≤ 0.015 µg/mL | MIC90 (Streptococcus pneumoniae; read-out: MIC90): ≤ 0.015 µg/mL | Activity (Citrobacter [42]): 100% | MIC50 (Enterobacter cloacae [43]): 1 µg/mL (≈ 3.34 µM) | MIC90 (Enterobacter cloacae [43]): 2 µg/mL (≈ 6.68 µM) | Activity (Enterobacteriaceae [44]): 99.6% | Activity (Enterobacteriaceae [45]): 97.3% | MIC50 (Enterobacteriaceae [46]): 0.5 µg/mL (≈ 1.67 µM) | MIC90 (Enterobacteriaceae [46]): 2 µg/mL (≈ 6.68 µM) | Activity (Pseudomonas aeruginosa [47]): 13.1% | Activity (Escherichia coli [48]): 0% | Activity (Serratia marcescens [49]): 0% | Activity (Pseudomonas aeruginosa [50]): 17.2% | MIC50 (Enterobacteriaceae [51]): 1 µg/mL (≈ 3.34 µM) | MIC90 (Enterobacteriaceae [51]): 2 µg/mL (≈ 6.68 µM) | Activity (Escherichia coli [52]): 0%
